# Test results as given in patent US20240159740A1, “METHOD FOR DIRECT ANALYSIS OF FUNCTIONAL AVIDITY OF T CELLS” (priority 2021, published 2024).
# Values joined by “and” are separate entries in the source; they are usually repeats but may differ in a detail not shown here. Equal entries are not always repeated.
# How the values were obtained:
# [1] = tested on: CD3 surface expression in CD40L+4-1BB+ CD4+ T cells; format: cell-based, human
# [2] = tested on: CD40L+4-1BB+ CD4+ T cells; experiment: Ex vivo T cell stimulation of PBMC, stimulation index of CD40L+4-1BB+ CD4+ T cells by flow cytometry; format: cell-based, human
# [3] = tested on: expanded CD40L+4-1BB+ CD4+ short-term T cell lines; experiment: Restimulation of expanded short-term T cell lines with autologous APC and peptides or peptide pools; format: cell-based, human; settings: T cell lines from 5 unexposed individuals
# serum IgG antibodies = settings: sera 1:100 from iCope T cell assay responders and non-responders
# Description: After blocking (1 h, 30° C.) serum samples were diluted 1:100 and incubated for 1 h at 30° C. HRP-coupled, anti-human-IgG secondary antibody (Jackson Immunoresearch) was diluted 1:5000 (Jackson Immunoresearch) and added to the serum samples for 1 h at 30° C., then HRP substrate was added (TMB, Kem-En-Tec). The reaction was stopped by adding sulfuric acid and absorption was measured at 450 nm using a FlexStation 3.
substance,measurement,setting,value
SFIEDLLFNKVTLAD [iCope],donors in which reactive T cells increased in frequency and in functional avidity,[1],10 of 17
same,donors responding with high functional avidity T cells,"[1]; day 7 and day 14 after BNT162b2 primary vaccination, 31 donors",94%
same,proportion of individuals with iCope-recognizing CD4+ T cells,[2]; BNT162b2 vaccinated individuals,97%
same,proportion of individuals with iCope-reactive CD4+ T cells,[2]; SARS-CoV-2 / COVID-19 convalescents,50% and 50-60%
same,contribution of peptide-specific T cells to the CD40L+4-1BB+ cells in S-II stimulations,[2]; initially after BNT162b2 vaccination,up to 100%
same,proportion of individuals with iCope-reactive CD4+ T cells,[2]; unexposed individuals,20%
same,strong responders (stim. index>3),"[2]; young, unexposed donors",44%
same,weak responders (stim. index>1.5),"[2]; young, unexposed donors",39%
FIEDLLFNKVTLADA [compound 205],donors whose expanded SARS-CoV-2 S-II-cross-reactive T cells were stimulated by the peptide,[3],all 5 donors
Biotin-Ttds-PSKPSKRSFIEDLLFNKV-OH [204_-1],peptide binding IgG antibodies detected in serum,serum IgG antibodies,in all individuals
SKRSFIEDLLFNKVT [compound 204],donors whose expanded SARS-CoV-2 S-II-cross-reactive T cells were stimulated by the peptide,[3],all 5 donors
